Assay results: US20200354426A1 (MEDIMMUNE LIMITED, priority 2016, published 2020)
Like-named read-outs stand apart in the source and are kept apart here. Marks after values point to notes of the source that are not given here. Numbered stars: 1 amine (or outer) side, 2 acyl side, 3 side chain; on linkers, the order of the positions; unused ones are H or OH. Side chains are listed from the residue outwards. Peptide text beside a SMILES is read from it. * marks the point of attachment. γGlu = O=C(O)[C@H](CCC(=O)[*:2])N[*:1]; Palmitoyl = CCCCCCCCCCCCCCCC(=O)*

Experiments:
[1] = test system: diet induced obesity (DIO) mouse model; experiment: Diet induced obesity (DIO) mouse model, study A; type: in vivo; settings: for BeHy / FGF21 / HOMA / Hepatic TG / Plasma Cholesterol / Plasma NEFA / Plasma TG: day 14; for Glucose / Insulin: day 14, 4-hour fasting
Text: Female C57/B16JHsdOla (obtained from Harlan Laboratories. UK) were started on a high fat diet of D12492 (Research Diets, NJ, USA) and a chocolate confection, delicato ball (Delicata Bakverk, Sweden) at 9-11 weeks of age, and were maintained on the diet for 16 weeks prior to arrival to the animal facility, during a three week acclimation period and during drug treatment, caloric content of the two components of the diet is shown in Table 11. The mice were divided into 9 groups (n=5-6), and treatment was started at 29 weeks of age.
The body weight of the animals was monitored daily throughout the dosing period. At day 14, blood samples for the measurement of plasma glucose and insulin from conscious mice were obtained after a 4-hour fasting period. Mice were then anaesthetized using isoflurane and terminal blood was collected from the capillary bed behind the eye. The following parameters were measured: blood chemistry measurements of triglycerides, total cholesterol, non-esterified fatty acids (NEFA), beta-hydroxybutyrate and fibroblast growth factor 21 (FGF21) (Tables 14 and 15 below).

Rat GLP1R = target: T1, Rat GLP1R (Rattus norvegicus, UniProt P32301); experiment: cAMP assay in 3.2% rat serum albumin (assay 2); type: cell-based
T1 construct: expressed in transfected cells
T1 sequence (P32301 22-463): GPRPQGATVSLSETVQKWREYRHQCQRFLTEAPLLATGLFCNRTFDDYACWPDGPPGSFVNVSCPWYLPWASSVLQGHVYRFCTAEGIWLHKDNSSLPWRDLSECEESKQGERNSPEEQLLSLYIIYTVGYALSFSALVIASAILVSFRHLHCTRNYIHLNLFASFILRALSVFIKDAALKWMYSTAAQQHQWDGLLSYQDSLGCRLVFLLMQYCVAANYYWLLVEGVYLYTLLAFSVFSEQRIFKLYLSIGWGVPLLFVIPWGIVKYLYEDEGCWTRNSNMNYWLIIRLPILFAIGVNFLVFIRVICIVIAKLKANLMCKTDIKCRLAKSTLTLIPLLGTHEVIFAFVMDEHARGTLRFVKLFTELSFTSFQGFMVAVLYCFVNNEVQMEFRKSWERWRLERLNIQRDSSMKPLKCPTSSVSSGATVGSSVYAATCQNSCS
Experimental: Cryopreserved cell stocks were prepared in 1× cell freezing medium-DMSO serum free (Sigma Aldrich) at 2×10^7/vial and stored at −80° C. […] Peptides were serially diluted in DMSO and then diluted 100 fold into DMEM containing serum albumin at stated final concentration. […] Cells were added to the assay plates and incubated for 30 min at room temperature. Following incubation the assay was stopped and cAMP levels measured using the HTRF® dynamic d2 cAMP assay kit available from CisBio Bioassays, as per the manufacture's guidelines. Plates were read on Perkin Elmer ENVISION® fluorescence plate readers. Human and rat serum albumin were purchased from Sigma Aldrich and mouse serum albumin from Equitech Bio Ltd.
Data was transformed to % Delta F as described in manufacturer's guidelines and analysed by 4-parameter logistic fit to determine EC50 values. […] For instance. […] To compare the balance of activities at the GLP1R and GlucR between different peptides and across different conditions, these can be correlated using the calculation below, where the EC50's are related to those of the natural ligands.

Human GIPr = target: T2, Human GIPr (Homo sapiens, UniProt P48546); experiment: cAMP activity assay in assay medium (assay 1); type: cell-based; settings: assay medium
T2 construct: expressed in transfected cells
T2 sequence (P48546 22-466): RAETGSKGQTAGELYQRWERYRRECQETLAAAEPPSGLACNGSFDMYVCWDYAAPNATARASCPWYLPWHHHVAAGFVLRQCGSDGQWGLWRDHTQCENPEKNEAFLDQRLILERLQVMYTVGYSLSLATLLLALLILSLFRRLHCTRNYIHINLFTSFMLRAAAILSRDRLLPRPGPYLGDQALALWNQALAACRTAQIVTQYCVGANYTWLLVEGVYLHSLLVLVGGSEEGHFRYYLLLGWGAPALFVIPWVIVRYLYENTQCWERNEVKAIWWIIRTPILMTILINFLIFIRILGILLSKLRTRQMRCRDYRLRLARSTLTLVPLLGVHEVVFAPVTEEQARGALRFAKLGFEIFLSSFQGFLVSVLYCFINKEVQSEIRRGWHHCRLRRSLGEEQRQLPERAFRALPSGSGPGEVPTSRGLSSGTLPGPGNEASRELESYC
Text: (§1) Biological Activity of Peptides in Cell-Based cAMP Activity Assay (Assay 1):
(§2) All sample dilutions were made in duplicate.

Human GlucR = target: T3, Human GlucR (Homo sapiens, UniProt P47871); experiment: cAMP activity assay in assay medium (assay 1); type: cell-based; settings: assay medium
T3 construct: expressed in transfected cells
Text: as §1, §2

T3 sequence (P47871 26-477): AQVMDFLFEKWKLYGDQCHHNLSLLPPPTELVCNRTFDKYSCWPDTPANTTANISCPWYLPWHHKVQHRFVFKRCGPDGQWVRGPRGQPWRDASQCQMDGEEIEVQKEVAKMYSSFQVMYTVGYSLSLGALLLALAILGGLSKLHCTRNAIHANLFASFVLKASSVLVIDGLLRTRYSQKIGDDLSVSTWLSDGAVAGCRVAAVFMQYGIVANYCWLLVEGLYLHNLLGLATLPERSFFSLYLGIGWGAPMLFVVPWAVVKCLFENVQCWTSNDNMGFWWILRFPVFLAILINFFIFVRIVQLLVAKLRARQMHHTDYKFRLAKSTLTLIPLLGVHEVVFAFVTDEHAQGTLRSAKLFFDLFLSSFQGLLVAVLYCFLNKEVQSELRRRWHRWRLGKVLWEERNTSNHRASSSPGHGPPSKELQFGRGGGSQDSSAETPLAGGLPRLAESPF

With `CCCCCCCCCCCCCCCC(=O)N[C@@H](CCC(=O)NCCCC[C@H](NC(=O)[C@H](CCCCN)NC(=O)[C@H](CO)NC(=O)[C@H](Cc1ccc(O)cc1)NC(=O)[C@H](CC(=O)O)NC(=O)[C@H](CO)NC(=O)[C@@H](NC(=O)[C@H](Cc1ccccc1)NC(=O)[C@@H](NC(=O)CNC(=O)[C@H](CCC(N)=O)NC(=O)[C@H](CO)NC(=O)[C@@H](N)Cc1c[nH]cn1)[C@@H](C)O)[C@@H](C)O)C(=O)N[C@@H](CC(C)C)C(=O)N[C@@H](CC(=O)O)C(=O)N[C@@H](CO)C(=O)N[C@@H](CCC(=O)O)C(=O)N[C@@H](CCCNC(=N)N)C(=O)N[C@@H](C)C(=O)N[C@@H](CCCNC(=N)N)C(=O)N[C@@H](CC(=O)O)C(=O)N[C@@H](Cc1ccccc1)C(=O)N[C@H](C(=O)N[C@@H](C)C(=O)N[C@@H](Cc1c[nH]c2ccccc12)C(=O)N[C@@H](CC(C)C)C(=O)N[C@H](C(=O)N[C@@H](C)C(=O)NCC(=O)NCC(N)=O)C(C)C)C(C)C)C(=O)O` [Peptide G730] (H-HSQGTFTSDYSKK([γGlu-Palmitoyl])LDSERARDFVAWLVAGG-NH2; N-terminus assumed) the “BW day 14 (% change of vehicle mean)” value ([1]; 10 nmol/kg sc twice daily 14 days) was −7.5%, the BeHy ([1]; 10 nmol/kg sc twice daily) was 428 µmol/L and the FGF21 ([1]; 10 nmol/kg sc twice daily) was 1963 pg/mL. For the same molecule, the HOMA ([1]; 10 nmol/kg sc twice daily) was 3.3, the “Hepatic TG” value ([1]; 10 nmol/kg sc twice daily) was 9.0 * g TB/100 g tissue and the “Plasma Cholesterol” value ([1]; 10 nmol/kg sc twice daily) was 3.10 mM. The “Plasma NEFA” value ([1]; 10 nmol/kg sc twice daily) was 0.28 Mm, the “Plasma TG” value ([1]; 10 nmol/kg sc twice daily) was 0.21 mM and the Glucose ([1]; 10 nmol/kg sc twice daily) was 7.2 mM. The Insulin ([1]; 10 nmol/kg sc twice daily) was 0.4 nM, the “BW day 14 (% change of vehicle mean)” value ([1]; 20 nmol/kg sc twice daily 14 days) was −15.6% and the BeHy ([1]; 20 nmol/kg sc twice daily) was 750 µmol/L. For the same molecule, the FGF21 ([1]; 20 nmol/kg sc twice daily) was 2236 pg/mL, the HOMA ([1]; 20 nmol/kg sc twice daily) was 1.7 and the “Hepatic TG” value ([1]; 20 nmol/kg sc twice daily) was 17.7 g TB/100 g tissue. For the same molecule, the “Plasma Cholesterol” value ([1]; 20 nmol/kg sc twice daily) was 2.46 mM, the “Plasma NEFA” value ([1]; 20 nmol/kg sc twice daily) was 0.25 Mm and the “Plasma TG” value ([1]; 20 nmol/kg sc twice daily) was 0.20 mM. It also gave a Glucose ([1]; 20 nmol/kg sc twice daily) of 6.7 mM, an Insulin ([1]; 20 nmol/kg sc twice daily) of 0.2 nM and a BeHy ([1]; 50 nmol/kg sc twice daily) of 1477 µmol/L. The FGF21 ([1]; 50 nmol/kg sc twice daily) was 5294 pg/mL, the HOMA ([1]; 50 nmol/kg sc twice daily) was 2.1 and the “Hepatic TG” value ([1]; 50 nmol/kg sc twice daily) was 28.1 g TB/100 g tissue. The “Plasma Cholesterol” value ([1]; 50 nmol/kg sc twice daily) was 2.19 mM, the “Plasma NEFA” value ([1]; 50 nmol/kg sc twice daily) was 0.32 Mm and the “Plasma TG” value ([1]; 50 nmol/kg sc twice daily) was 0.23 mM. For the same molecule, the Glucose ([1]; 50 nmol/kg sc twice daily) was 5.9 mM, the Insulin ([1]; 50 nmol/kg sc twice daily) was 0.3 nM and the “body weight over the 14 day dosing period” value ([1]; DIO mice, FIGS. 1-4) was “dose dependent and continuous weight loss”. It also gave an EC50 (Rat GLP1R) of 0.081 nM, an EC50 (Human GIPr; Table 2, C-terminal amide peptides, read-out: Human GIPr EC50) of 45 nM and an EC50 (Human GIPr; Table 4, read-out: hGIPR EC50) of 56.6 nM. It also gave an EC50 (Human GlucR; Table 2, C-terminal amide peptides, read-out: Human GlucR EC50) of 0.00623 nM and an EC50 (Human GlucR; Table 4, read-out: hGlucR EC50) of 0.015 nM.
